Laboratory results published in US8816092B2, “Indazole derivative or salt thereof and production intermediate thereof, and antioxidant using same, and use of indazole derivative or salt thereof” (Ube Industries, Ltd., priority 2010, dated 2014).
Structures can show the parent of a compound that is named as a salt.

Tested on: rat liver microsome lipid peroxidation
Assay: Antioxidation action test in rat liver microsome (microsome lipid peroxidation measuring system, TBARS generation)
Assay type: biochemical
Details: for antioxidation action: microsome lipid peroxidation measuring system using a rat liver microsome, result in words; for IC50: rat liver microsome, NADPH 500 μM + ferrous sulfate 50 μM, 20 minutes reaction, 37° C., n=2, nonlinear regression, read-out: IC50 (TBARS generation suppressing action)
Procedure: 1. Antioxidation Action Test in Rat Liver Microsome
Using a microsome lipid peroxidation measuring system, an antioxidation action of a test compound was evaluated. This test quantifies a thiobarbituric acid reaction substance (TBARS) that is generated by a lipid peroxidation reaction caused by adding nicotinamide adenine dinucleotide phosphoric acid and ferrous sulfate to a microsome. To this system, a test compound is added, and a TBARS generation suppressing action by the test compound is evaluated as an antioxidation action. This method is a general method for measuring an antioxidation action of a compound or the like (Reference document: Yakugaku Zasshi 119, 93-99 (1999), Biochimica et Biophysics Acta, 1046, (1990) 207-213, Chemistry & Biology Experiment line 2, lipid peroxidation experimental method (Hirokawa shoten)).
A buffer solution was prepared by mingling to achieve 25 mM tris(hydroxymethyl)aminomethane (Tris) (pH 7.4) and 150 mM potassium chloride (KCl).
Ferrous sulfate (FeSO4.7H2O) was dissolved in distilled water to prepare a 5 mM solution.
Nicotinamide adenine dinucleotide phosphoric acid (NADPH) was dissolved in distilled water to prepare a 50 mM solution.
Ethylenediaminetetraacetic acid (EDTA) was dissolved in distilled water to prepare a 200 mM solution.
Five μL of a commercially available rat liver microsome [XENOTECH, catalog No. R1000 (20 mg protein/mL)] was used.
As a test compound, Compound A which is an inventive compound [1-[6-(4-cyclopropyl-1H-indazol-5-yl)pyridin-3-yl]-1-ethylenepropylamine hydrochloride (Example compound 2)], and Compound B having a similar compound structure [1-[6-(4-cyclopropyl-1H-indazol-5-yl)pyridin-3-yl]-1-methyl ethyl amine hydrochloride (synthesized according to a method described in European Patent Publication No. 1679308)] were used. Ten mM test compound solutions were prepared by dissolving 1.3 mg of Compound A in 0.315 mL of dimethyl sulfoxide (DMSO), and dissolving 2.15 mg of Compound B in 0.554 mL of dimethyl sulfoxide (DMSO).
[drawing 8] (Evaluation Method) 1) A test compound solution (5 μL) was put into a reaction tube. […] 7) A thiobarbituric acid reaction substance (TBARS) generation value in the reaction completed solution was measured using a commercially available TBARS measuring kit [Cayman, Catalog No. 10009055].
As a non-lipid peroxidation reaction group, a test was conducted by adding distilled water in place of nicotinamide adenine dinucleotide phosphoric acid and ferrous sulfate, and a TBARS generation value was measured. The number of examples of each group is n=2, and the TBARS generation suppressing rate (%) was calculated from an average value of n=2 according to the following formula 1, and IC50 of the test compound was measured by nonlinear regression of statistical analysis software (EXSAS). […]

Compound | antioxidation action | IC50
CCC(N)(CC)c1ccc(-c2ccc3[nH]ncc3c2C2CC2)nc1 [Compound A, 1-[6-(4-cyclopropyl-1H-indazol-5-yl)pyridin-3-yl]-1-ethylpropylamine hydrochloride] | exhibited a strong antioxidation action | 3.8 µM
CC(C)(N)c1ccc(-c2ccc3[nH]ncc3c2C2CC2)nc1 [Compound B, 1-[6-(4-cyclopropyl-1H-indazol-5-yl)pyridin-3-yl]-1-methyl ethyl amine hydrochloride] | did not exhibit a strong antioxidation action | > 100 µM
